According to a polymer gas permeability compilation:

Structure (SMILES) | CH4 permeability [Barrer] | CO2 permeability [Barrer] | N2 permeability [Barrer] | O2 permeability [Barrer] | H2 permeability [Barrer]
*c1ccc2c(c1)Cc1cc(N3C(=O)c4ccc(C(c5ccc6c(c5)C(=O)N(*)C6=O)(C(F)(F)F)C(F)(F)F)cc4C3=O)ccc1-2 (repeat unit) | 0.63 | 32.2 | 1.27 | 7.85 | –
*Oc1ccc(Oc2cccc(*)c2C#N)c(-c2cc(C)cc(C)c2)c1 (repeat unit) | 0.06 | 3.5 | 0.17 | 0.94 | 9.6
*Oc1ccc(C(=O)c2ccccc2-c2ccccc2C(=O)c2ccc(Oc3c(C)cc(-c4cc(C)c(*)c(C)c4)cc3C)cc2)cc1 (repeat unit) | 0.264 | 6.96 | 0.291 | 1.86 | –
*=CC1CCC(C=*)C1 (repeat unit) | 2.5 | 15.4 | 1.5 | 2.8 | 21
*c1cc2c(cc1C)-c1cc(C)c(N3C(=O)c4ccc(S(=O)(=O)c5ccc6c(c5)C(=O)N(*)C6=O)cc4C3=O)cc1S2(=O)=O (repeat unit) | 0.244 | 14.1 | 0.37 | 3.29 | 45.4
*C(=C(*)c1ccc2c(c1)C(C)(C)c1cc(Br)ccc1-2)c1ccccc1 (repeat unit) | 3000 | 8000 | 1100 | 2000 | 3700
*c1c(C)cc(C)c(-n2c(=O)c3cc4c(=O)n(*)c(=O)c4cc3c2=O)c1C (repeat unit) | – | – | 8.44 | 36.3 | 235
*Oc1ccc(C(C)(C)c2ccc(Oc3ccc(C(=O)c4ccc(*)cc4)cc3)cc2)cc1 (repeat unit) | 0.18 | 3.5 | 0.16 | 1 | 11
*C(C(=O)OC1CCCCC1)C(*)C(=O)OC(C)(C)C (repeat unit) | – | – | 5 | 17 | 72
*Oc1ccc(S(=O)(=O)c2ccc(Oc3c(C)cc(-c4cc(C)c(*)c(C)c4)cc3C)cc2)cc1 (repeat unit) | 1.27 | 31.8 | 1.21 | 5.8 | –
*c1c(C)cc(-c2cc(C)c(N3C(=O)c4ccc(Oc5cc(C)c(Oc6ccc7c(c6)C(=O)N(*)C7=O)c(C)c5C)cc4C3=O)c(C)c2)cc1C (repeat unit) | 1.2 | 39 | 1.2 | 6.5 | 55
*c1ccc(Oc2ccc(Oc3ccc(Oc4ccc(N5C(=O)c6ccc(-c7ccc8c(c7)C(=O)N(*)C8=O)cc6C5=O)cc4)cc3)cc2)cc1 (repeat unit) | 0.0305 | 1.25 | 0.0392 | 0.256 | –
*Oc1ccc(Oc2ccc(C(=O)c3ccc(*)cc3)cc2)cc1C(C)(C)C (repeat unit) | 0.221 | 4.65 | 0.217 | 1.39 | –
*Nc1cccc(NC(=O)c2ccc(C(c3ccc(C(*)=O)cc3)(C(F)(F)F)C(F)(F)F)cc2)c1 (repeat unit) | 0.24 | 8.4 | 0.4 | 2.2 | 23
*Oc1ccc(S(=O)(=O)c2ccc(Oc3ccc(C(C)(C)c4cccc(*)c4)cc3)cc2)cc1 (repeat unit) | 0.0432 | 1.5 | 0.0661 | 0.39 | –
*/C=C/c1ccc(*)cc1[Si](C)(C)CCCCCCCC (repeat unit) | – | 60 | 3.9 | 12 | –
*Oc1c(C)cc(C(c2cc(C)c(OC(*)=O)c(C)c2)(C(F)(F)F)C(F)(F)F)cc1C (repeat unit) | 2.79 | 71.5 | 4.75 | 20.9 | 126
